According to patent EP4467141A1, “PYRAZOLO-QUINOLINES AS SELECTIVE INHIBITORS OF GENOTOXIC STRESS-INDUCED IKK/NF- KB PATHWAYS FOR CANCER THERAPY” (Max-Delbrück-Centrum für Molekulare Medizin in der …, priority 2023, dated 2024):

What was measured:
Assay in all cases: Kinase panel study
Type in all cases: biochemical
Settings in all cases: read-out: Percentage of inhibition; for inhibition at 1 µM: 1000nM; for inhibition at 10 µM: 10000nM
PAK1 = target: T1, PAK1 (Homo sapiens, UniProt Q13153)
T1 construct: purchased Thermo Fisher Scientific
T1 sequence (Q13153 whole entry): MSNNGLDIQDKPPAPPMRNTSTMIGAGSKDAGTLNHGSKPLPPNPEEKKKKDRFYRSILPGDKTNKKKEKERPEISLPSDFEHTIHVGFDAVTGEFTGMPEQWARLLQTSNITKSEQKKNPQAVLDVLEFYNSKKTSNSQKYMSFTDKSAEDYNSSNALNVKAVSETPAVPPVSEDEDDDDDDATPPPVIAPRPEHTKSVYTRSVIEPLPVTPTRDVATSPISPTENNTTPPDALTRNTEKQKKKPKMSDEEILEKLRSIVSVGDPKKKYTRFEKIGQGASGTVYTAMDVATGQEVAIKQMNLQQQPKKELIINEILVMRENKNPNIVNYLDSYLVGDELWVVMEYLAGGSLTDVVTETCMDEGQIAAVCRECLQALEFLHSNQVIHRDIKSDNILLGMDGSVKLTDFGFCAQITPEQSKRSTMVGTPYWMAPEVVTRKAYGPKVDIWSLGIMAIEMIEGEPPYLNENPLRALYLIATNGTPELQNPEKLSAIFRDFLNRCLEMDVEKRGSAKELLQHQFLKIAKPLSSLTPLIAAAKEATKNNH
Summary of the method: (§1)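 Readout is percentage kinase inhibition. Testing used 1 µM or 10 µM compound in externally run ZLyte/Adapta in vitro assays, and IC50 values were derived within the same panel.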

SGK2 = target: T2, SGK2 (Homo sapiens, UniProt Q9HBY8)
T2 construct: purchased Thermo Fisher Scientific
T2 sequence (Q9HBY8 1-367): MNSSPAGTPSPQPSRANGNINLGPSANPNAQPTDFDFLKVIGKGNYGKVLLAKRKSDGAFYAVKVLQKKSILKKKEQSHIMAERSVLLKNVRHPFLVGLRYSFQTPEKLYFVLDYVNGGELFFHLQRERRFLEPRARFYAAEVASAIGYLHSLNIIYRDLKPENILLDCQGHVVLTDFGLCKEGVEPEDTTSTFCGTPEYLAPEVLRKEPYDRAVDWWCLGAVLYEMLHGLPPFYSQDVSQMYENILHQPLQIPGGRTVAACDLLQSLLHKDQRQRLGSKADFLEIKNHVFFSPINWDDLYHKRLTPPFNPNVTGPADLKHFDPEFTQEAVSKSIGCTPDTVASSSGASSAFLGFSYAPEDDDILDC
Summary of the method: as §1

NUAK1 (ARK5) = target: T3, NUAK1 (ARK5) (Homo sapiens, UniProt O60285)
T3 construct: purchased Thermo Fisher Scientific
T3 sequence (O60285 1-661): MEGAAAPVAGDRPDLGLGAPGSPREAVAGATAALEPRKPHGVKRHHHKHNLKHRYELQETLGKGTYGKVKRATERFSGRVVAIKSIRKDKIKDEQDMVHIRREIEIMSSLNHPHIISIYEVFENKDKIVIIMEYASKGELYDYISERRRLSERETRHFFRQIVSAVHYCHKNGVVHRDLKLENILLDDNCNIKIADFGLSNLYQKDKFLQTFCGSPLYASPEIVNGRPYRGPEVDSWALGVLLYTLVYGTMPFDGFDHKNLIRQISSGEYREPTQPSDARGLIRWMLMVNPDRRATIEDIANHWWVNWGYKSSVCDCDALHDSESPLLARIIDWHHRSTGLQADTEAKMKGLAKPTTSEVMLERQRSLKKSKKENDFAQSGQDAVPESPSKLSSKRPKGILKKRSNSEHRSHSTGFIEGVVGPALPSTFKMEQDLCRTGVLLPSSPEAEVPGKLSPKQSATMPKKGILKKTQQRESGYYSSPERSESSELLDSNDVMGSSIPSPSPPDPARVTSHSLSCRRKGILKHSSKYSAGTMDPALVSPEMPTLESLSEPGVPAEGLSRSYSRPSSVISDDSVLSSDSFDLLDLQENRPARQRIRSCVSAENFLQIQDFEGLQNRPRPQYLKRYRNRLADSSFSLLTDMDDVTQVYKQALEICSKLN
Summary of the method: as §1

KSR2 = target: T4, KSR2 (Homo sapiens, UniProt Q6VAB6)
T4 construct: purchased Thermo Fisher Scientific
T4 sequence (Q6VAB6 1-950): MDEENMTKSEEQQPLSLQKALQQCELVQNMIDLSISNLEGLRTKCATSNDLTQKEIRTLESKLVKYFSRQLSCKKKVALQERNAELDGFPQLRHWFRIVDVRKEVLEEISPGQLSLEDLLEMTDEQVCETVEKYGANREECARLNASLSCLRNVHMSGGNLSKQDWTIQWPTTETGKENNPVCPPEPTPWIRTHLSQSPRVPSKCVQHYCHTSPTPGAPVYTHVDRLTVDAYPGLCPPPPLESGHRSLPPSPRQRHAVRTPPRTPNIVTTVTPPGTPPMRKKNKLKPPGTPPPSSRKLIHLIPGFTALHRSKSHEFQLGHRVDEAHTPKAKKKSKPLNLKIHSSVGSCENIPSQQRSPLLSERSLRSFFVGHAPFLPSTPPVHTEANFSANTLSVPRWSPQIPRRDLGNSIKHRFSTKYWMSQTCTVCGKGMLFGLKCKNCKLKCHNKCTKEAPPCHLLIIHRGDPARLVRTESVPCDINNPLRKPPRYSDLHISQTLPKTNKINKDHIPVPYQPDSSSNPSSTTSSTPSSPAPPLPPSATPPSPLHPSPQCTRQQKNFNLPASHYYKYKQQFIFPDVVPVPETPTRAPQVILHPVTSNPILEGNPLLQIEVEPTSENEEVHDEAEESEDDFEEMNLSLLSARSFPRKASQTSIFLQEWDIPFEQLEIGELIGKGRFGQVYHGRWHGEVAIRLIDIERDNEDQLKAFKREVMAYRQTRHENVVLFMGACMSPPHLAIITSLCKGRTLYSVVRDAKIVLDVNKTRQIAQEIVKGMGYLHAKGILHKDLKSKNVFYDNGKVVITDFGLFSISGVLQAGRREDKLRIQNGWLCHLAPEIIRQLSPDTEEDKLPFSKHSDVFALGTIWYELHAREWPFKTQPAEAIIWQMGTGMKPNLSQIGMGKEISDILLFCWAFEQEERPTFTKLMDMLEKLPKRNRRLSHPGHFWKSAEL
Summary of the method: as §1

Compound	inhibition at 1 µM (PAK1) [%]	inhibition at 10 µM (PAK1) [%]	inhibition at 1 µM (SGK2) [%]	inhibition at 10 µM (SGK2) [%]	inhibition at 1 µM (NUAK1 (ARK5)) [%]	inhibition at 10 µM (NUAK1 (ARK5)) [%]	inhibition at 1 µM (KSR2) [%]	inhibition at 10 µM (KSR2) [%]
COc1ccc2c(c1OC)c(=O)n1c3ccc(O)cc3c3ccnc2c31 [MW01, 5-Hydroxy-10,11-dimethoxy-9H-benzo[c]indolo[3,2,1-ij][1,5]naphthyridin-9-one]	10	22	6	14	48	66	5	8
COc1ccc2cc3c(N)nn(C(=O)c4cccc(N(C)C)c4)c3nc2c1 [MW05, (3-Amino-7-methoxypyrazolo[3,4-b]quinolin-1-yl)-[3-(dimethylamino)phenyl]methanone]	16	2	-3	-11	6	11	7	-2
